Data from patent US20170198027A1 (priority 2012, published 2017).

System: ApoE ko mice fed with high fat diet
From the text: 10 ApoE ko mice were fed with regular chow diet and used as negative control group. 50 ApoE ko mice were fed with high fat diet (35% kcal fat, 1% cholesterol) for 8 weeks, and then the plasma samples were collected for lipid profile measurement before the treatment. 50 ApoE ko mice were assigned into 5 groups based on the fasting overnight plasma TC and HDL level.
19 Mar. 2012 to 6 Apr. 2012: Group the mice based on the TC and HDL level and start the treatment with 3 doses of antibody APOA1 by i.p daily on the weekday (The first dose was administered by iv injection
13 Apr. 2012-14 May 2012: The treatment with antibody APOA1 was changed to i.p injection every two days (Monday, Wednesday, and Friday) per client's instruction.
Antibody products were administrated by intraperitoneal injection every two days (Monday, Wednesday, and Friday). and the positive compound was administered by p.o every day.
5.4. Body weight and blood glucose measurement: The body weight was weighed weekly during the period of treatment. The fasting overnight blood glucose was measured at the end of study by Roche glucometer.
5.5 24 h food intake measurement: 24 hours food intake for each cage was measured weekly
5.6. Plasma lipid profile measurement: About 300 ul of blood sample was collected from the orbital vein for each mouse and centrifuged at 7000 rpm for 5 min at 4° C. and the plasma lipid profile was measured by Roche Modular automatic biochemistry analyzer in DaAn Medical Laboratory
After RAAS antibody products treatment for 8 weeks, all mice were sacrificed. Measured body weight and collected blood sample for each mouse. Weighed liver weight and saved a tiny piece of liver into 4% paraformaldehyde (PFA) fixation solution for further analysis. At same time, take the photos with heart, lung, aortas and two kidneys.
Scanning the glasses slides with the Aperio ScanScope system and analyze with the image proplus software to measure the area of atherosclerotic plaque session. The results were expressed as the percentage of the total aortic surface area covered by lesions. The operation procedure of software was briefly described as follow: Converted the sys version photos into JPG version, then calibrated it and subsequently selected the red regions and then calculate the total area automatically by image proplus software.
The results were expressed as the Mean±SEM and statistically evaluated by student's t-test.

human Apoiipoprotein AI, injection [APOA1]
arteriosclerosis plaque lesion in the region of thoracic aorta (root plaque area) (APOA1 mid dose and low dose, not significant vs vehicle): trend of reducing the arteriosclerosis plaque lesion
plasma total cholesterol (TC) (after 8 week treatment, APOA1 low dose): significantly lower total cholesterol level
plasma TG level (after 8 weeks treatment): no effect
fasting overnight blood glucose (after 8 weeks treatment vs vehicle): no effect
ratio of liver weight/body weight (after 8 weeks treatment vs vehicle, RAAS antibody low dose, atorvastatin 20 mg/kg): reduced the ratio of liver weight/body weight significantly
atherosclerosis plaque lesion area of aorta (after 8 weeks treatment, APOA1 low dose): trend on reducing the plaque lesion area
deaths in the treatment groups (after 15 doses treatment): several mice died
atherosclerosis plaque lesion from the aortic root to right renal artery (atorvastatin p=0.08): trend of reducing the atherosclerosis plaque lesion in a dose dependent manner
plasma HDL (low dose, after 4 weeks treatment): significantly decrease the HDL level
body weight (vs vehicle group, atorvastatin after 5 weeks treatment): trend on reducing body weight but didn't reach statistic difference
